“And” between values parts separate entries of the source, which are not always exact repeats. Equal values may be shown once. Toxic doses and inconclusive results are not listed. Rule as the data show it: active = T/C of 150% or more; inactive = T/C below 125%.
Tested on: L1210 leukemia ip in BDF1 mice, survival T/C
Assay: NCI In Vivo Anticancer Drug Screen. Data for tumor model L1210 Leukemia (intraperitoneal) in B6D2F1 (BDF1) mice
Conditions: endpoint: mean survival time, higher = longer survival
Outline: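 Mice bearing the transplanted tumor received compound or vehicle. Survival of the treated group was divided by that of the vehicle-treated control group to give the ratio.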

[1] = dose: 100.0 mg/kg/injection, schedule: Q04DX002 (ip), vehicle: saline with Tween-80
[2] = dose: 400.0 mg/kg/injection, schedule: Q04DX002 (ip), vehicle: saline with Tween-80
[3] = dose: 100.0 mg/kg/injection, schedule: Q01DX009 (ip), vehicle: Klucel (hydroxypropylcellulose) (HPC)
[4] = dose: 100.0 mg/kg/injection, schedule: Q04DX002 (ip), vehicle: Klucel (hydroxypropylcellulose) (HPC)
[5] = dose: 200.0 mg/kg/injection, schedule: Q04DX002 (ip), vehicle: Klucel (hydroxypropylcellulose) (HPC)
[6] = dose: 400.0 mg/kg/injection, schedule: Q04DX002 (ip), vehicle: Klucel (hydroxypropylcellulose) (HPC)
[7] = dose: 50.0 mg/kg/injection, schedule: Q01DX001 (ip), vehicle: saline
[8] = dose: 100.0 mg/kg/injection, schedule: Q01DX001 (ip), vehicle: saline
[9] = dose: 200.0 mg/kg/injection, schedule: Q01DX001 (ip), vehicle: saline
[10] = dose: 400.0 mg/kg/injection, schedule: Q01DX001 (ip), vehicle: saline
[11] = dose: 100.0 mg/kg/injection, schedule: Q04DX003 (ip), vehicle: saline with Tween-80
[12] = dose: 200.0 mg/kg/injection, schedule: Q04DX003 (ip), vehicle: saline with Tween-80
[13] = dose: 400.0 mg/kg/injection, schedule: Q04DX003 (ip), vehicle: saline with Tween-80

Measured: T/C

CN(N=O)C(=O)NCCSc1nc2ncncc2[nH]1
inactive: dose: 31.0 mg/kg/injection, schedule: Q01DX001 (ip), vehicle: carboxymethylcellulose (CMC) 87 % of control | dose: 62.0 mg/kg/injection, schedule: Q01DX001 (ip), vehicle: carboxymethylcellulose (CMC) 103 % of control | dose: 93.0 mg/kg/injection, schedule: Q01DX001 (ip), vehicle: carboxymethylcellulose (CMC) 106 % of control | dose: 187.0 mg/kg/injection, schedule: Q01DX001 (ip), vehicle: carboxymethylcellulose (CMC) 103 % of control | dose: 250.0 mg/kg/injection, schedule: Q01DX001 (ip), vehicle: carboxymethylcellulose (CMC) 103 % of control | dose: 500.0 mg/kg/injection, schedule: Q01DX001 (ip), vehicle: carboxymethylcellulose (CMC) 115 % of control | dose: 750.0 mg/kg/injection, schedule: Q01DX001 (ip), vehicle: carboxymethylcellulose (CMC) 123 % of control | dose: 1000.0 mg/kg/injection, schedule: Q01DX001 (ip), vehicle: carboxymethylcellulose (CMC) 117 % of control

CCN1CC2C3CCC(C)(O3)C2C1 (centres undefined)
inactive: dose: 44.0 mg/kg/injection, schedule: Q01DX Z (ip), vehicle: methylcellulose (MC) 100 % of control | dose: 66.0 mg/kg/injection, schedule: Q01DX Z (ip), vehicle: methylcellulose (MC) 92 % of control | dose: 100.0 mg/kg/injection, schedule: Q01DX Z (ip), vehicle: methylcellulose (MC) 98 % of control

O=C(O)COc1ccc(C2CCc3ccccc32)cc1 (centres undefined)
inactive: dose: 75.0 mg/kg/injection, schedule: Q01DX001 (ip), vehicle: Klucel (hydroxypropylcellulose) (HPC) 104 % of control | dose: 150.0 mg/kg/injection, schedule: Q01DX001 (ip), vehicle: Klucel (hydroxypropylcellulose) (HPC) 101 % of control | dose: 300.0 mg/kg/injection, schedule: Q01DX001 (ip), vehicle: Klucel (hydroxypropylcellulose) (HPC) 101 % of control

CNC(=O)OC(C)(C)C#N
inactive: [1] 101 % of control | dose: 200.0 mg/kg/injection, schedule: Q04DX002 (ip), vehicle: saline with Tween-80 101 % of control | [2] 106 % of control

Cc1cc(O)ccc1SC#N
inactive: dose: 3.12 mg/kg/injection, schedule: Q04DX003 (ip), vehicle: saline + alcohol 97 % of control | dose: 6.25 mg/kg/injection, schedule: Q04DX003 (ip), vehicle: saline + alcohol 101 % of control | dose: 12.5 mg/kg/injection, schedule: Q04DX003 (ip), vehicle: saline + alcohol 101 % of control

CC(O)C(O)C(=O)OCc1ccccc1 (centres undefined)
inactive: dose: 100.0 mg/kg/injection, schedule: Q01DX009 (ip), vehicle: saline 117 % of control | dose: 100.0 mg/kg/injection, schedule: Q04DX003 (ip), vehicle: saline 101 % of control | dose: 200.0 mg/kg/injection, schedule: Q01DX009 (ip), vehicle: saline 102 % of control | dose: 200.0 mg/kg/injection, schedule: Q04DX003 (ip), vehicle: saline 103 % of control | dose: 400.0 mg/kg/injection, schedule: Q01DX009 (ip), vehicle: saline 110 % of control | dose: 400.0 mg/kg/injection, schedule: Q04DX003 (ip), vehicle: saline 98 % of control

CCCCCCCCCCC/C(C)=N/Nc1ccc([N+](=O)[O-])cc1[N+](=O)[O-]
inactive: dose: 100.0 mg/kg/injection, schedule: Q01DX001 (ip), vehicle: saline with Tween-80 94 % of control | dose: 200.0 mg/kg/injection, schedule: Q01DX001 (ip), vehicle: saline with Tween-80 92 % of control | dose: 400.0 mg/kg/injection, schedule: Q01DX001 (ip), vehicle: saline with Tween-80 92 % of control

O=C(NCc1ccccc1)C(Cc1ccccc1)Cc1ccccc1
inactive: dose: 100.0 mg/kg/injection, schedule: Q01DX001 (ip), vehicle: carboxymethylcellulose (CMC) 93 % of control | dose: 200.0 mg/kg/injection, schedule: Q01DX001 (ip), vehicle: carboxymethylcellulose (CMC) 95 % of control | dose: 400.0 mg/kg/injection, schedule: Q01DX001 (ip), vehicle: carboxymethylcellulose (CMC) 98 % of control

O=C(Nc1cc(C(F)(F)F)ccc1Cl)Oc1ccc(F)cc1Cl
inactive: [3] 97 % of control and 101 % of control | [4] 95 % of control and 100 % of control | dose: 200.0 mg/kg/injection, schedule: Q01DX009 (ip), vehicle: Klucel (hydroxypropylcellulose) (HPC) 101 % of control and 108 % of control | [5] 100 % of control and 104 % of control | dose: 400.0 mg/kg/injection, schedule: Q01DX009 (ip), vehicle: Klucel (hydroxypropylcellulose) (HPC) 108 % of control and 89 % of control | [6] 103 % of control and 110 % of control

CCN(CC)C(=O)C(N)Cc1ccc(OC)c(N(CCCl)CCCl)c1 (centres undefined)
inactive: dose: 6.0 mg/kg/injection, schedule: Q01DX009 (ip), vehicle: saline 103 % of control | dose: 10.0 mg/kg/injection, schedule: Q01DX009 (ip), vehicle: saline 103 % of control | dose: 14.0 mg/kg/injection, schedule: Q01DX009 (ip), vehicle: saline 112 % of control | dose: 22.0 mg/kg/injection, schedule: Q01DX009 (ip), vehicle: saline 105 % of control | dose: 33.0 mg/kg/injection, schedule: Q01DX001 (ip), vehicle: saline 123 % of control | dose: 33.0 mg/kg/injection, schedule: Q01DX009 (ip), vehicle: saline 108 % of control | [7] 123 % of control | dose: 50.0 mg/kg/injection, schedule: Q01DX009 (ip), vehicle: carboxymethylcellulose (CMC) 104 % of control | dose: 50.0 mg/kg/injection, schedule: Q01DX009 (ip), vehicle: saline 116 % of control | dose: 75.0 mg/kg/injection, schedule: Q01DX009 (ip), vehicle: carboxymethylcellulose (CMC) 103 % of control | dose: 112.0 mg/kg/injection, schedule: Q01DX001 (ip), vehicle: saline 113 % of control | dose: 112.5 mg/kg/injection, schedule: Q01DX001 (ip), vehicle: carboxymethylcellulose (CMC) 116 % of control | dose: 150.0 mg/kg/injection, schedule: Q01DX001 (ip), vehicle: carboxymethylcellulose (CMC) 117 % of control

O=S1(=O)CCc2ccccc21
inactive: [8] 97 % of control | [9] 111 % of control | [10] 104 % of control

CCS(=O)(=O)c1nc2ccccc2[nH]1
inactive: [4] 97 % of control | [5] 108 % of control | [6] 108 % of control

O=c1cc(Nc2ccccc2Cl)[nH]c(=O)[nH]1
inactive: [11] 104 % of control | [12] 98 % of control | [13] 95 % of control

Nc1ncnc2c1ncn2C1OCC(O)C1CO (centres undefined)
inactive: [7] 111 % of control | [8] 109 % of control | [9] 105 % of control

O=C(O)c1cc2ccc3ccccc3c2s1
inactive: [8] 87 % of control | [9] 88 % of control

CC(C)(C)C1CCC(NC(=O)C(Cl)Cl)CC1 (centres undefined)
inactive: dose: 25.0 mg/kg/injection, schedule: Q01DX009 (ip), vehicle: Klucel (hydroxypropylcellulose) (HPC) 100 % of control | dose: 25.0 mg/kg/injection, schedule: Q04DX003 (ip), vehicle: Klucel (hydroxypropylcellulose) (HPC) 97 % of control | dose: 50.0 mg/kg/injection, schedule: Q01DX009 (ip), vehicle: Klucel (hydroxypropylcellulose) (HPC) 94 % of control | dose: 50.0 mg/kg/injection, schedule: Q04DX003 (ip), vehicle: Klucel (hydroxypropylcellulose) (HPC) 100 % of control | [3] 96 % of control | dose: 100.0 mg/kg/injection, schedule: Q04DX003 (ip), vehicle: Klucel (hydroxypropylcellulose) (HPC) 90 % of control and 92 % of control

Nc1nc(N)nc(Cl)n1
inactive: [1] 98 % of control | [2] 95 % of control

N#CC(C#N)=Cc1csc2ccccc12
inactive: [8] 93 % of control | [9] 102 % of control | [10] 102 % of control

COc1ccc2c(c1)OC(C)(C)C(c1ccccc1)C2c1ccc(OCCN2CCCC2)cc1 (centres undefined)
inactive: [11] 119 % of control | [12] 94 % of control | [13] 95 % of control

Reference: PubChem BioAssay AID248 (DTP/NCI, 2004)
